Experiments:
Type in all cases: biochemical
B-Raf V600E = molecular target: T1, B-Raf V600E (Homo sapiens, UniProt P15056, V600E); experiment: AlphaScreen kinase assay, B-Raf V600E; settings: read-out: IC50, activity toward kinase B-Raf V600E
T1 construct: P4254. pFastBacBD-CDC37 BRAF D437-K722-X, V600E; His6 with pFastBac HT leader (TEV site) (N); made in house; host or cells: Sf9 (baculovirus; chaperone CDC37 co-expressed)

B-Raf = molecular target: T2, B-Raf (Homo sapiens, UniProt P15056); experiment: AlphaScreen kinase assay, B-Raf; settings: read-out: IC50, activity toward kinase B-Raf
T2 construct: purchased Upstate Biotechnology

c-Raf-1 = molecular target: T3, c-Raf-1 (Homo sapiens, UniProt P04049); experiment: AlphaScreen kinase assay, c-Raf-1; settings: read-out: IC50, activity toward kinase c-Raf-1
T3 construct: purchased Upstate Biotechnology

Fms = molecular target: T4, Fms (Homo sapiens, UniProt P07333); experiment: AlphaScreen kinase assay, Fms; settings: read-out: IC50, activity toward kinase Fms
T4 construct: purchased Upstate Biotechnology

Kit = molecular target: T5, Kit (Homo sapiens, UniProt P10721); experiment: AlphaScreen kinase assay, Kit; settings: read-out: IC50, activity toward kinase Kit
T5 construct: P1332.N6 BI PTP KIT M552-K948-X COD; His6 (N); made in house; host or cells: E. coli (PTP1B co-expressed)

Measured: IC50

T2 sequence (P15056 whole entry): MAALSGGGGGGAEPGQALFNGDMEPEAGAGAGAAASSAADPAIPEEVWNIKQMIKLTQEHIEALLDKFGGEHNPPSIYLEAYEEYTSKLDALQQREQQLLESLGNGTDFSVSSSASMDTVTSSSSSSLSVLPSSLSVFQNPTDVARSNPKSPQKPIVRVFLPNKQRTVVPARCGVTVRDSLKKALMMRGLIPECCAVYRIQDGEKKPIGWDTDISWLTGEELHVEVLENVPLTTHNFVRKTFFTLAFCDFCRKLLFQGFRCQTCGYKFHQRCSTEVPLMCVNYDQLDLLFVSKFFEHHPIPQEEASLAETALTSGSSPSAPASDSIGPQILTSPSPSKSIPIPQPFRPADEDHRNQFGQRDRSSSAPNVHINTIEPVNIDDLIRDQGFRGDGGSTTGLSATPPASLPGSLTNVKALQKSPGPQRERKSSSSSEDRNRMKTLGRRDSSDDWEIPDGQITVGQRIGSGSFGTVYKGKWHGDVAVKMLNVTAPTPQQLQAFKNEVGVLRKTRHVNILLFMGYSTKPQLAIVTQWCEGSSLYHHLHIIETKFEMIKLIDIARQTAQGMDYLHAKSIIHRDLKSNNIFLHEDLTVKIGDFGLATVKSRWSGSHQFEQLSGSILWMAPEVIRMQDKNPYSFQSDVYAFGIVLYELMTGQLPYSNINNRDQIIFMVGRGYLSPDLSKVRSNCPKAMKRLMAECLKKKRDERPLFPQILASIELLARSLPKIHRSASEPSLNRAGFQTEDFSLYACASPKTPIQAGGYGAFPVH
T3 sequence (P04049 whole entry): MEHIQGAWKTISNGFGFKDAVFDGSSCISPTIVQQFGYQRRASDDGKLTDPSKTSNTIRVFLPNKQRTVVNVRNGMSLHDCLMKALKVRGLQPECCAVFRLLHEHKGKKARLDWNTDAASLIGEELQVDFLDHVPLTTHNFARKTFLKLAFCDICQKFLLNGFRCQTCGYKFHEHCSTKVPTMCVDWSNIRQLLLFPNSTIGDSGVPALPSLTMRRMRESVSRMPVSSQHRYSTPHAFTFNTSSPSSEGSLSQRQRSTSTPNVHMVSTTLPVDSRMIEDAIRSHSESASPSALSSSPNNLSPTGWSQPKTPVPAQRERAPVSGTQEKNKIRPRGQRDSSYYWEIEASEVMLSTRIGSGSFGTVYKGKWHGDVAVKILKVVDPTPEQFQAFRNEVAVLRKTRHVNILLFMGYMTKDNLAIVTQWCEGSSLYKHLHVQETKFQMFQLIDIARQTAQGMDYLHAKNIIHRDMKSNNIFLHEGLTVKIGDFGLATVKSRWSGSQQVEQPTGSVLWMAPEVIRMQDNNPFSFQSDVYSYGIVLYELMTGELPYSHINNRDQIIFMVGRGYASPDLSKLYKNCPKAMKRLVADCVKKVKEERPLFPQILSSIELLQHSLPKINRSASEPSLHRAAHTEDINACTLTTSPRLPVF
T5 sequence (P10721 with tags, fused parts or gaps): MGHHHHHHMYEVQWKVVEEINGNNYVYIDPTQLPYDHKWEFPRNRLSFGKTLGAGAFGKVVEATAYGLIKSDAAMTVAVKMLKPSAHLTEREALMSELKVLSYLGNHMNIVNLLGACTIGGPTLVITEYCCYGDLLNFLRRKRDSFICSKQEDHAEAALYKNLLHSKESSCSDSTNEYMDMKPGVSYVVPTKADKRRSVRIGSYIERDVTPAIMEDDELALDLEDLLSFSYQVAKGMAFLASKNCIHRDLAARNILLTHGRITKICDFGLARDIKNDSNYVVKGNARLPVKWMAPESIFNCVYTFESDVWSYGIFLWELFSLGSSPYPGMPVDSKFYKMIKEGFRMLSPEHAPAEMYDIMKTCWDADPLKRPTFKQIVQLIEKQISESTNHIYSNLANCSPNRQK
T4 sequence (P07333 20-972): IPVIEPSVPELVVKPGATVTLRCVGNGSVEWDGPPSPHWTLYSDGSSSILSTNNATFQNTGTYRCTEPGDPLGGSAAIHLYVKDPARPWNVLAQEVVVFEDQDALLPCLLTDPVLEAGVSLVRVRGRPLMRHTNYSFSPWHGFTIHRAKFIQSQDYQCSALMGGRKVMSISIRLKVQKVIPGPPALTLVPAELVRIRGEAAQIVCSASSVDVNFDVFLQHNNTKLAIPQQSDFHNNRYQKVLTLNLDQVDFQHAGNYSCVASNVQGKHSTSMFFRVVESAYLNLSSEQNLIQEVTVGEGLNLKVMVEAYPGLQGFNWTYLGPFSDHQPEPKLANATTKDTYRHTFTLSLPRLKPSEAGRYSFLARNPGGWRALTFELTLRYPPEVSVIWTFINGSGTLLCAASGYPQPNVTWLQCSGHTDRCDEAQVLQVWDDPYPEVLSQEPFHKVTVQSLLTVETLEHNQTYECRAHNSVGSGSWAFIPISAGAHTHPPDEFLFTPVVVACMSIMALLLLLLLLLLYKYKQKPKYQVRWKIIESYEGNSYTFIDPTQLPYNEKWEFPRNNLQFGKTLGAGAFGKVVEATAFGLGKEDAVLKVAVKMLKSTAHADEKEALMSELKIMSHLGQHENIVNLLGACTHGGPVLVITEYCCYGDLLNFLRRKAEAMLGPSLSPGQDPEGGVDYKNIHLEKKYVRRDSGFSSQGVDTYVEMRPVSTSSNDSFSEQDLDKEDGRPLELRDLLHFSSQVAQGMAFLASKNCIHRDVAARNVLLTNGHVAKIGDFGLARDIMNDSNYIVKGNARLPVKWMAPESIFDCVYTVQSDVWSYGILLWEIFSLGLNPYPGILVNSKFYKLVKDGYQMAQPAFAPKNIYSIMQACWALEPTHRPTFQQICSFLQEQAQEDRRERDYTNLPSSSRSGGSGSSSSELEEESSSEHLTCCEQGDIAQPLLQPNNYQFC
T1 sequence (P15056 with tags, fused parts or gaps V600E): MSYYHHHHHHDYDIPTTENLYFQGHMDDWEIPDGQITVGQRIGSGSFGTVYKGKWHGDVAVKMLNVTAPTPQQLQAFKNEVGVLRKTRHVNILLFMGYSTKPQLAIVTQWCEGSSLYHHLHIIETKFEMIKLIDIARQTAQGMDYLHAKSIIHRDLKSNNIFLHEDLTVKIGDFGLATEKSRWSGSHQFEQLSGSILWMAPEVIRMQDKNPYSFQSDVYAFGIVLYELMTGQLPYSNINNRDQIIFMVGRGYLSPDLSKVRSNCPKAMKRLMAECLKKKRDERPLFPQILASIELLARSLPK

O=C(Nc1cccc(C(=O)c2c[nH]c3ncccc23)c1)Nc1cccc(C(F)(F)F)c1F [Compound P-1714, 1-(2-Fluoro-3-trifluoromethyl-phenyl)-3-[3-(1H-pyrrolo[2,3-b]pyridine-3-carbonyl)-phenyl]-urea]
≤ 10 µM: all assays above

CCCS(=O)(=O)Nc1ccc(F)c(C(=O)c2c[nH]c3ncc(C(=O)NCC)cc23)c1F [Compound P-1630, 3-[2,6-difluoro-3-(propane-1-sulfonylamino)-benzoyl]-1H-pyrrolo[2,3-b]pyridine-5-carboxylic acid ethylamide]
≤ 10 µM: all assays above

O=C(Nc1cccc(C(=O)c2c[nH]c3ncccc23)c1)Nc1cc(C(F)(F)F)ccc1Cl [Compound P-1712, 1-(2-Chloro-5-trifluoromethyl-phenyl)-3-[3-(1H-pyrrolo[2,3-b]pyridine-3-carbonyl)-phenyl]-urea]
≤ 10 µM: all assays above

O=C(Nc1ccccc1)Nc1cccc(C(=O)c2c[nH]c3ncc(Cl)cc23)c1 [Compound P-1733, 1-[3-(5-Chloro-1H-pyrrolo[2,3-b]pyridine-3-carbonyl)-phenyl]-3-phenyl-urea]
≤ 10 µM: all assays above

CCCS(=O)(=O)Nc1ccc(F)c(C(=O)c2c[nH]c3ncc(-c4ccc(N5CCOCC5)nc4)cc23)c1F [Compound P-1881, Propane-1-sulfonic acid {2,4-difluoro-3-[5-(6-morpholin-4-yl-pyridin-3-yl)-1H-pyrrolo[2,3-b]pyridine-3-carbonyl]-phenyl}-amide]
≤ 10 µM: all assays above

O=C(Nc1cccc(C(=O)c2c[nH]c3ncc(Cl)cc23)c1)Nc1cc(C(F)(F)F)ccc1Cl [Compound P-1738, 1-[3-(5-Chloro-1H-pyrrolo[2,3-b]pyridine-3-carbonyl)-phenyl]-3-(2-chloro-5-trifluoromethyl-phenyl)-urea]
not listed: Kit
≤ 10 µM: all other assays above

O=C(Nc1cccc(C(=O)c2c[nH]c3ncc(Cl)cc23)c1)Nc1ccc(C(F)(F)F)cc1Cl [Compound P-1739, 1-[3-(5-Chloro-1H-pyrrolo[2,3-b]pyridine-3-carbonyl)-phenyl]-3-(2-chloro-4-trifluoromethyl-phenyl)-urea]
≤ 10 µM: all assays above

O=C(Nc1cccc(C(=O)c2c[nH]c3ncc(Cl)cc23)c1)Nc1cccc(C(F)(F)F)c1F [Compound P-1740, 1-[3-(5-Chloro-1H-pyrrolo[2 3-b]pyridine-3-carbonyl)-phenyl]-3-(2-fluoro-3-trifluoromethyl-phenyl)-urea]
≤ 10 µM: all assays above
